Test results from patent US20230158063A1, “AIRWAY […] THERAPY TO TREAT VIRAL R[…]” (THE TRUSTEES OF INDIANA UNIVERSITY, priority 2020, published 2023).

Test system: primary normal human airway epithelial (HAE) cells
Assay: Intracellular pH of HAE cells by pH-sensitive dye fluorescence microscopy
Assay type: cell-based
Conditions: HAE cells pre-loaded with 1.25 μM BCECF-AM; normalized to pre-treatment; n=3; ZnCl2 at 100 μM

[Cl-].[Cl-].[Zn+2] [ZnCl2, zinc chloride]
BCECF-AM fluorescence intensity (increases as pH increases): essentially eliminating fluorescence
